From patent US11026906B2 (priority 2016, dated 2021)
Entries after “also recorded” stand apart in the source; their conditions may differ. Like-named read-outs stand apart in the source and are kept apart here.

Tests used:
[1] = in vivo; cited from earlier work
[2] = Stability of the compositions (storage, light, heating under vacuum)
[3] = system: subject with osteonecrosis of the jaw and osteoarthritis; assay: Efficacy study in one subject: daily oral strontium L-lactate; format: in vivo, human
Procedure: Likewise, today there are no effective treatments for osteonecrosis of the jaw caused by lengthy use of bone resorption inhibitors (anti-resorptives). […] The test subject experienced deterioration of the jawbone sufficient to loosen their teeth and cause pain when chewing. They received a 200 mg dose of strontium as the L-lactate each day, taken separately from food. […] Over a 3-month period, the subject receiving this treatment experienced a restoration of the jawbone sufficient to set the teeth more firmly and reduce the pain associated with chewing. […] The benefits were so remarkable that the subject continued treatment for at least 8 months, with continuing resolution of the bone and cartilage defects.
A subject suffered from latent osteonecrosis of the jaw as a result of several years of alendronate treatment for osteoporosis. In addition to loose teeth and jaw pain during chewing due to the osteonecrosis, they suffered from osteoarthritis. Their dentist advised them that the necrosis was so serious they would lose several teeth and might have to change from a normal diet to a soft-food diet. Their arthritis was so severe that they had to give up crocheting and knitting, hobbies they had enjoyed for many years. […] They requested access to strontium L-lactate of the present invention. […] Their treatment continued for 8 months with similar improvements.

[4] = system: subjects with femoral neck BMD less than 0.600 g/cm^2; assay: Double-blind clinical study, non-vertebral fractures over 3 year follow-up (expected results); conditions: 200 mg strontium daily vs placebo
From the text: In a double-blind clinical study, 80 subjects are divided into two groups (n=40). The control group receives a daily supplement containing 1.8 g of sodium L-lactate (placebo). […] All non-vertebral fractures will be recorded with the exception of the coccyx, skull, jaw, face, phalanx (fingers and toes) and ankle, since these latter are not regarded as being related to osteoporosis.

[5] = for Area under the curve (AUC0-∞), Mean / Half-life (T1/2), Mean / Oral Bioavailability, Mean / Rate of elimination (K), Mean / Maximum serum concentration (Cmax), Mean: 10 subjects; for Maximum serum concentration (Cmax), Mean: fasted
From the text: The study was approved by an Institutional Review Board. […] Each provided informed consent to participate in the study.
(§1) On the day of dose administration, the subjects arrived at the clinic fasted. Their qualifications for enrollment were reviewed to ensure compliance. Immediately prior to administration of the test article, an indwelling venous catheter was placed and a blood sample was withdrawn into a trace metal-free tube (the t=0 sample). […] After drinking the test article solution, fasting continued for 2 hours. During the day, however, subjects were provided usual and customary meals. Potential adverse events were monitored.
Each blood sample was stored appropriately until all samples had been collected for the day. Then the blood samples were centrifuged to separate the serum, and each serum sample was transferred into two trace metal-free vials. The vials were shipped to an independent analytical laboratory for serum strontium analyses.
as §1, with “One week later, on the day” for “On the day”, “administration, the same subjects arrived” for “administration, the subjects arrived”

[6] = daily doses of 0.3-0.6 grams; cited from earlier work
[7] = system: men and women having low bone mass; conditions: cited from earlier work
[8] = about 200 mg strontium per day orally, after 3 months

Structure (SMILES): C[C@@H](O)C(=O)O [D-lactate]
- blood concentration causing acidosis and encephalopathies [1]: ≥ 3000 µM

Structure (SMILES): C[C@H](O)C(=O)[O-].C[C@H](O)C(=O)[O-].O.O.O.[Sr+2] [strontium L-lactate trihydrate]
- stability on exposure to light [2]: stable
- stability during storage ([2]; 25° C./60% relative humidity): stable
- racemization on heating ([2]; solid heated under vacuum, about 100° C. to about 130° C.): No racemization

Structure (SMILES): C[C@H](O)C(=O)[O-].C[C@H](O)C(=O)[O-].[Sr+2] [strontium L-lactate]
- side effects ([3]; 200 mg strontium per day, at least 8 months): no side effects
- osteoarthritis: stiffness, pain, flexibility of hands [3, 8]: increased flexibility of osteoarthritic hands and fingers; also recorded: the stiffness and pain of their osteoarthritis had significantly abated
- osteonecrosis of the jaw: teeth setting and pain when chewing [3, 8]: reduced the injury and pain associated with osteonecrosis of the jaw; also recorded: their teeth were more set in their jawbone and that they experienced less pain when chewing
- non-vertebral fractures [4]: significant reduction in all non-vertebral fractures
- average serum concentration of strontium compared with strontium ranelate ([5]; 170 mg dose of strontium as L-lactate vs 680 mg dose of strontium as ranelate (U.S. Pat. No. 7,595,342)): approximately equaled the serum concentration of strontium achieved by ingesting a 680 mg dose of strontium as the ranelate; also recorded: approximately equal to the serum concentrations of strontium provided by 680 mg of water-insoluble strontium ranelate
- time at which average serum strontium concentration reached a maximum ([5]; after ingesting a solution of strontium L-lactate in water): about 3 hr
- adverse effects ([5]; after ingesting any of three escalating doses (170, 340, 680 mg strontium)): no adverse effects
- Area under the curve (AUC0-∞), Mean ([5]; oral dose 170 mg strontium): 47.8 mg Sr/L · h
- Half-life (T1/2), Mean ([5]; oral dose 170 mg strontium): 12.3
- Oral Bioavailability, Mean ([5]; oral dose 170 mg strontium): 0.94
- Rate of elimination (K), Mean ([5]; oral dose 170 mg strontium): 0.06 h⁻¹
- Area under the curve (AUC0-∞), Mean ([5]; oral dose 340 mg strontium): 115.6 mg Sr/L · h
- Half-life (T1/2), Mean ([5]; oral dose 340 mg strontium): 12.1
- Oral Bioavailability, Mean ([5]; oral dose 340 mg strontium): 0.93
- Rate of elimination (K), Mean ([5]; oral dose 340 mg strontium): 0.06 h⁻¹
- Area under the curve (AUC0-∞), Mean ([5]; oral dose 680 mg strontium): 185.0 mg Sr/L · h
- Half-life (T1/2), Mean ([5]; oral dose 680 mg strontium): 14.0
- Oral Bioavailability, Mean ([5]; oral dose 680 mg strontium): 0.94
- Rate of elimination (K), Mean ([5]; oral dose 680 mg strontium): 0.05 h⁻¹
- Maximum serum concentration (Cmax), Mean ([5]; single oral dose 340 mg strontium as strontium L-lactate in 100 mL water): 6.3 mg Sr/L
- Maximum serum concentration (Cmax), Mean ([5]; single oral dose 680 mg strontium as strontium L-lactate in 100 mL water): 9.3 mg Sr/L

Structure (SMILES): CC(O)C(=O)[O-].CC(O)C(=O)[O-].[Sr+2] (centres unmarked) [strontium lactate]
- albumin in the urine [6]: decrease albumin in the urine

Structure (SMILES): N#Cc1c(N(CC(=O)[O-])CC(=O)[O-])sc(C(=O)[O-])c1CC(=O)[O-].[Sr+2].[Sr+2] [strontium ranelate]
- incidence of fractures ([7]; daily dose of 2 grams (680 mg strontium), almost a decade of clinical use): significantly reduced incidence of fractures
- side effects of therapeutic doses of the strontium ion ([7]; human exposure): does not cause gastric irritation, esophageal cancer, colon cancer, or osteonecrosis of the jaw

Structure (SMILES): O=C([O-])CCC(=O)[O-].[Sr+2] [strontium succinate]
- benefit in treating osteoporosis ([7]; daily dose of 1.7 grams (680 mg strontium)): highly beneficial in treating osteoporosis
